Data on one compound can be found in patent US20100113599A1, “AMPHIPATHIC CARBOXYLATES FOR THE TREATMENT OF IMMUNE-RELATED DISORDERS” (Syndromex Ltd. c/o Yissum Research Development Company, of, priority 2007, published 2010).

Assay [1] concerns Experimental Autoimmune Encephalomyelitis (EAE). The assay is described as follows: EAE (MOG35-55) model for MS, clinical score. The assay is classed as in vivo, female C57BL/6 mice. Conditions: for day of fully established EAE: control day 24.
For assay [2], the system named is human CRP. The assay is described as follows: LPS-induced human CRP in hCRPtg mice. The class given is in vivo. Conditions: 0.06% (W/W) (about 60 mg/kg body weight/day) for fourteen days, LPS 25 μg/mice last 18 h. The protocol:
The effect of M16αα in decreasing human CRP induced by LPS injection was analyzed in hCRPtg mice treated with M16αα for 14 days and challenged with LPS.
(§1) Therefore, hCRPtg mice were treated for ten days with M16αα (80 mg/kg/d) dissolved in 1% CMC and administered by gavage. Plasma CRP was determined by ELISA at the beginning and at the end of treatment. […] The inventors further examined the effect of the MEDICA drugs on LPS-induced CRP. Therefore, CRP expression was analyzed in hCRPtg mice treated with M16αα 0.06% (W/W) (about 60 mg/kg body weight/day) for fourteen days and challenged with LPS (25 μg/mice) for the last 18 h. As illustrated by the histogram of FIG. 25, treatment with M16αα decreases LPS-induced levels of human CRP.

For the next assay, the system named is RPMI8226 cells. Put plainly: Cell cycle arrest markers in MM RPMI8226 cells (Western blot). The assay is classed as cell-based. Conditions: 200 μM, 24 h. On the procedure: Cell Cycle arrest of MM RPMI8226 by M16αα. RPMI8226 cells were cultured with 200 μM M16αα, in RPMI 1640 medium with 10% FCS for 24 h, lysed, Western blotted and reacted with anti p-P53(S15) and p-Rb as indicated.

Assay [3] deals with U266 cells. The assay is described as follows: Growth of Multiple Myeloma U266 cells, Trypan Blue exclusion. The assay is classed as cell-based. To be noted: 200 μM, day 6. On the procedure:
Growth Suppression by M16αα of Multiple Myeloma (MM) cells. MM cells were incubated in RPMI 1640 medium in the presence of added M16αα as indicated. Cell number was determined daily by Trypan Blue exclusion.
The inhibitory effect of MEDICA drugs on colon tumor cell proliferation, presumably via activation of apoptosis, encouraged the inventors to further investigate the potential beneficial effect of these compounds on other malignancies. The inventors therefore next examined the effect of the MEDICA drugs using the Multiple myeloma model. U-266 and RPMI-8226 cell lines served as cell models for MM. MM cells were incubated in RPMI 1640 medium in the presence of M16αα as indicated. Cell number was determined daily by Trypan Blue exclusion assay. […] It should be noted that generally, these cells were more sensitive even to lower concentrations of M16αα.

The test system of assay [4] is human CRP. The assay is described as follows: Basal plasma human CRP in hCRPtg mice (ELISA). The class given is in vivo. Conditions: 80 mg/kg/d by gavage for ten days, before treatment 0.619. The protocol: hCRPtg were treated for 10d with M16αα (80 mg/kg/d) dissolved in 1% CMC and administered by gavage. Plasma basal CRP was determined before and at the end of treatment by ELISA.
Unlike human CRP, mouse CRP is not an acute-phase reactant, and is synthesized hi trace amounts only. However, male hCRP transgene mice (hCRPtg), having the human CRP gene flanked by most of human CRP promoter integrated in their genome, constitutively produce human CRP, with serum levels ranging between 10 and 20 μg/mL.
as §1

The next assay deals with gp130. Put plainly: gp130 protein levels in HepG2 cells (Western blot). The class given is cell-based, human. To be noted: 200 μM for 17 and 24 h, LIF 20 ng/ml. On the procedure: MEDICA drugs inhibit LIF-induced STAT3 phosphorylation. HepG2 cells were incubated with M16αα (200 μM) for 17 and 24 h. At each time point LIF (20 ng/ml) was added for the last 20 minutes (for protein) or for the last 3 h (for mRNA). Western blots of cell lysates were reacted with anti gp130 and anti P-STAT3 (Y705) antibodies and normalized by β-actin.
MEDICA drugs inhibit IL-6-induced STAT3 phosphorylation. HepG2 cells were incubated for 40 h with […] M16αα. IL-6 (20 ng/ml) was added for the last 15 h. Western blots of cell lysates were reacted, with anti GP-130, anti STAT3, anti P-STAT3 (Y705) and anti P-STAT3 (S727) antibodies and normalized by β-actin. Abbreviations: cont. (control), dim. (dimer), Tot. (total), mono. (monomer).
The examined effect of MEDICA drugs on expression of APP, was further analyzed by analyzing the effect of M16αα on downstream elements in the signaling pathway leading to expression of APP. Signal Transducers and Activators of Transcription 3 (STAT3), is a transcription factor phosphorylated by JAK kinases in response to cytokine activation of a cell surface receptor tyrosine kinases. Cytokines that activate STAT3 include growth hormone, IL-6 family cytokines, Oncostatin, LIF, CNTF and G-CSF, Leptin and others. […]

Assay [5] deals with U266 cells. The assay is described as follows: Apoptosis markers (PARP, Bcl-2, Bcl-xL) in MM U266 cells (Western blot). The class given is cell-based. To be noted: 200 μM. The protocol:
U266 cells were cultured with 200 μM M16αα for time periods as indicated, lysed, Western blotted and reacted with anti STAT3, p-STAT3 (Y705), PARP or Bcl-xL antibodies.
To examine the possibility that the inhibitory effect of M16αα, on Multiple Myeloma may be mediated by enhancement of pro apoptotic mechanism and induction of cell cycle arrest, U266 cells were cultured with 200 μM M16αα in RPMI 1640 medium with 10% FCS for time periods as indicated, lysed, Western blotted and reacted with anti STAT3, p-STAT3 (Y705), PARP or Bcl-xL and Bcl-2 as indicated.

For the compound `CC(C)(CCCCCCCCCCCCC(C)(C)C(=O)O)C(=O)O` [M16αα, 2,2,15,15-tetramethyl-hexadecanedioic acid], the “average maximal clinical score” value in assay [1] (Preventive Group A: 30 mg/kg BW daily from three days prior to MOG challenge to day 37, control group D 4.3) is given as 1.3; in assay [1] (group B: 30 mg/kg BW daily from seventh day following MOG injection to day 52, control group D 4.3), 4.3; in assay [1] (group C: 30 mg/kg BW daily from first day to day 52, control group D 4.3) it was 3.8. Moreover, in assay [1] (Preventive Group A: after termination of treatment (vehicle day 37 to day 52), control group D 4.3), the “average maximal clinical score upon termination of treatment” value was approximately 2.0. The “day of fully established EAE” value in assay [1] (group B: 30 mg/kg BW daily from seventh day to day 52) and in assay [1] (group C: 30 mg/kg BW daily from first day to day 52) was 40 days in each case. In the assay with human CRP [2], the “LPS-induced levels of human CRP” value is listed as “decreases”. Further, in the assay with RPMI8226 cells, the “phosphorylated Rb” value was “reduction”. Besides, in the assay on RPMI8226 cells, the “phosphorylated p53” value is on record as “increase”. The cell proliferation result in the assay on U266 cells [3] was “complete inhibition”. Further, the “basal levels of human CRP in plasma at the end of treatment” value in the assay on human CRP [4] came to 0.396. In addition, in the assay with gp130, the gp130 protein levels entry is given as “significantly reduced”. Moreover, the “anti-apoptotic markers (Bcl-2, Bcl-xL)” value in the assay with U266 cells [5] was “concomitant decrease”. The “cleavage of PARP” value with U266 cells [5] (compared to control cells) is “enhancement”.
